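How tested: cells in 96-well plates exposed to compound for 48 hours at five concentrations. Here, GI50 denotes the concentration required for 50% inhibition of growth.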 The source made the active and inactive calls. No stated cut-off is given here; in the data, active = GI50 up to about 1.1 µM and inactive = higher.
How the values were obtained:
Test in all cases: DTP human tumour cell line panel, 48 h
BT-549 = test system: BT-549
DU-145 = test system: DU-145
HCT-116 = test system: HCT-116
HOP-62 = test system: HOP-62
K562 = test system: K562
MCF7 = test system: MCF7
MDA-MB-435 = test system: MDA-MB-435
MDA-N = test system: MDA-N
MOLT-4 = test system: MOLT-4
OVCAR-3 = test system: OVCAR-3
OVCAR-8 = test system: OVCAR-8
SF-539 = test system: SF-539
SK-MEL-28 = test system: SK-MEL-28
SK-MEL-2 = test system: SK-MEL-2
SN12C = test system: SN12C
SNB-75 = test system: SNB-75
UACC-62 = test system: UACC-62
UO-31 = test system: UO-31
Hs-578T = test system: Hs-578T

Measured: GI50

CCOC(=O)c1cn(-c2ccc([N+](=O)[O-])cc2)c(=S)n2c1nc1ccccc12
inactive: BT-549 35 µM | DU-145 81.7 µM | HCT-116 31.1 µM | HOP-62 63.2 µM | K562 46.5 µM | MCF7 33.2 µM | MDA-MB-435 41.8 µM | MDA-N 39.7 µM | MOLT-4 28 µM | OVCAR-3 53.7 µM | OVCAR-8 35.5 µM | SF-539 32 µM | SK-MEL-28 49.9 µM | SK-MEL-2 17.8 µM | SN12C 50.1 µM | SNB-75 > 100 µM | UACC-62 31.8 µM | UO-31 1.83 µM

O=C1CC2c3ccccc3CCC2c2ccccc21 (stereo unspecified)
inactive: DU-145 57.8 µM | HCT-116 11.1 µM | HOP-62 25.9 µM | Hs-578T 12.4 µM | K562 6.32 µM | MCF7 24 µM | MDA-MB-435 19.3 µM | MDA-N 6.64 µM | MOLT-4 32.3 µM | OVCAR-3 13.3 µM | OVCAR-8 21.2 µM | SF-539 16.3 µM | SK-MEL-28 36.1 µM | SK-MEL-2 16.8 µM | SNB-75 38.2 µM | UACC-62 20 µM | UO-31 15.2 µM

CCCCCNc1nonc1N
inactive: DU-145 > 100 µM | HCT-116 > 100 µM | HOP-62 > 100 µM | Hs-578T > 72.8 µM | K562 > 100 µM | MCF7 > 100 µM | MDA-MB-435 > 100 µM | MDA-N > 100 µM | MOLT-4 > 100 µM | OVCAR-3 > 100 µM | OVCAR-8 > 100 µM | SF-539 > 100 µM | SK-MEL-28 > 100 µM | SK-MEL-2 > 100 µM | SN12C > 100 µM | SNB-75 > 100 µM | UACC-62 > 100 µM | UO-31 > 100 µM

N#Cc1nnc2ccccc2c1N
inactive: BT-549 > 100 µM | DU-145 > 100 µM | HCT-116 > 100 µM | HOP-62 > 100 µM | K562 > 100 µM | MCF7 > 100 µM | MDA-MB-435 > 100 µM | MOLT-4 > 100 µM | OVCAR-3 2.26 µM | OVCAR-8 > 100 µM | SF-539 > 100 µM | SK-MEL-28 > 100 µM | SK-MEL-2 > 100 µM | UACC-62 > 100 µM | UO-31 > 100 µM

COc1c(-c2ccc(F)cc2)oc2cc(O)cc(O)c2c1=O
inactive: DU-145 29 µM | HCT-116 30.5 µM | HOP-62 18.5 µM | Hs-578T 35.2 µM | K562 38.9 µM | MCF7 33.7 µM | MDA-MB-435 32.1 µM | MDA-N 26.2 µM | MOLT-4 24.2 µM | OVCAR-3 34.1 µM | OVCAR-8 28.7 µM | SF-539 19.8 µM | SK-MEL-28 46.9 µM | SK-MEL-2 23.3 µM | SN12C 30.3 µM | SNB-75 19.2 µM | UO-31 16.6 µM

N/N=C1\CCCc2c1no[n+]2[O-]
inactive: DU-145 > 100 µM | HCT-116 > 100 µM | HOP-62 > 100 µM | Hs-578T > 100 µM | K562 > 100 µM | MCF7 > 100 µM | MDA-MB-435 > 100 µM | MDA-N > 100 µM | MOLT-4 > 100 µM | OVCAR-3 > 100 µM | OVCAR-8 > 100 µM | SF-539 > 100 µM | SK-MEL-28 > 100 µM | SK-MEL-2 > 100 µM | SN12C > 100 µM | SNB-75 > 100 µM | UACC-62 > 100 µM | UO-31 > 100 µM

COC/C=C\[C@]1(O)CCCC[C@@H]1CC(OC)OC
inactive: DU-145 > 100 µM | HOP-62 > 100 µM | Hs-578T > 100 µM | K562 43.5 µM | MCF7 > 100 µM | MDA-MB-435 > 100 µM | MDA-N > 100 µM | MOLT-4 23.4 µM | OVCAR-3 > 100 µM | OVCAR-8 > 100 µM | SF-539 > 100 µM | SK-MEL-28 > 100 µM | SK-MEL-2 > 100 µM | SNB-75 > 100 µM | UACC-62 > 100 µM | UO-31 > 100 µM

O=C(O)CCC1C(=O)C2CCN1CC2 (stereo unspecified)
inactive: DU-145 > 100 µM | HCT-116 > 100 µM | HOP-62 > 100 µM | Hs-578T > 100 µM | K562 > 100 µM | MCF7 > 100 µM | MDA-MB-435 > 100 µM | MDA-N > 100 µM | MOLT-4 > 100 µM | OVCAR-3 > 100 µM | OVCAR-8 > 100 µM | SF-539 > 100 µM | SK-MEL-28 > 100 µM | SK-MEL-2 > 100 µM | SN12C > 100 µM | SNB-75 > 100 µM | UACC-62 > 100 µM | UO-31 > 100 µM

CC(C)(C)OC(=O)NCCNCCNc1ccccc1
inactive: BT-549 > 100 µM | DU-145 90.8 µM | HCT-116 > 100 µM | HOP-62 > 100 µM | K562 > 100 µM | MCF7 > 100 µM | MDA-MB-435 > 100 µM | MDA-N 97.5 µM | MOLT-4 > 100 µM | OVCAR-3 > 100 µM | OVCAR-8 > 100 µM | SF-539 > 100 µM | SK-MEL-28 > 100 µM | SK-MEL-2 > 100 µM | SN12C > 100 µM | SNB-75 58.2 µM | UACC-62 > 100 µM | UO-31 > 100 µM

CCOC(=O)C1C(c2ccco2)C2(C#N)C(=N)OC1(C)C2(C#N)C#N (stereo unspecified)
inactive: DU-145 > 100 µM | HCT-116 > 100 µM | Hs-578T > 100 µM | K562 > 100 µM | MCF7 > 100 µM | MDA-MB-435 > 100 µM | MDA-N > 100 µM | MOLT-4 > 100 µM | OVCAR-8 > 100 µM | SF-539 > 100 µM | SK-MEL-2 > 100 µM | SN12C > 100 µM | SNB-75 57.7 µM | UACC-62 > 100 µM | UO-31 > 100 µM

CC12CCC3[C@@H](CC3(C)C)C(O)(CCC1=O)C2 (stereo partly specified)
inactive: DU-145 > 100 µM | HCT-116 > 100 µM | HOP-62 > 100 µM | Hs-578T > 100 µM | K562 > 100 µM | MCF7 > 100 µM | MDA-MB-435 > 100 µM | MDA-N > 100 µM | MOLT-4 > 100 µM | OVCAR-3 > 100 µM | OVCAR-8 > 100 µM | SF-539 > 100 µM | SK-MEL-28 > 100 µM | SK-MEL-2 > 100 µM | SN12C > 100 µM | SNB-75 > 100 µM | UACC-62 > 100 µM | UO-31 > 100 µM

O=C1C(NCCc2cc(Br)c(O)c(Br)c2)=CC(=O)c2ncccc21
inactive: DU-145 3.66 µM | HCT-116 3.71 µM | HOP-62 3.28 µM | Hs-578T 3.1 µM | K562 3.21 µM | MCF7 4.09 µM | MDA-MB-435 1.69 µM | MDA-N 1.82 µM | MOLT-4 6.71 µM | OVCAR-3 1.84 µM | OVCAR-8 3.85 µM | SF-539 2.37 µM | SK-MEL-28 3.21 µM | SK-MEL-2 8.07 µM | SN12C 3.8 µM | SNB-75 1.31 µM | UACC-62 1.83 µM | UO-31 5.87 µM

Source: ChEMBL document CHEMBL1201862, “PubChem BioAssay data set” (2004)
